Data reported in article PMC3949575 (The Journal of Experimental Medicine, 2014).

Target: deoxycytidine kinase (dCK) (Homo sapiens, UniProt P27707)
Test: HTS hit
Format: cell-based

`COc1ccc(Br)cc1-c1nc(CSc2nc(N)cc(N)n2)cs1` [DI-0120] was tested. Which IC50 did it give?
Its IC50 is 1400 nM.
